Legend:
Type in all cases: in vivo
[1] = test system: giant foxtail (Setaria faberii); assay: Test A postemergence; details: Setaria faberi, post-emergence, 240 h, 0 to 100 scale, read-out: Plant response rating, Foxtail, Giant
Description: (§1) Seeds of plant species selected from barnyardgrass (Echinochloa crus-galli), kochia (Kochia scoparia), ragweed (common ragweed, Ambrosia elatior), Italian ryegrass (Lolium multiflorum), large (Lg) crabgrass (Digitaria sanguinalis), giant foxtail (Setaria faberii), morningglory (Ipomoea spp.), pigweed (Amaranthus retroflexus), velvetleaf (Abutilon theophrasti), wheat (Triticum aestivum), and corn (Zea mays) were planted into a blend of loam soil and sand and treated preemergence with a directed soil spray using test chemicals formulated in a non-phytotoxic solvent mixture which included a surfactant.
(§2) At the same time, plants selected from these crop and weed species and also blackgrass (Alopecurus myosuroides), and galium (catchweed bedstraw, Galium aparine) were planted in pots containing the same blend of loam soil and sand and treated with postemergence applications of test chemicals formulated in the same manner. Plants ranged in height from 2 to 10 cm and were in the one- to two-leaf stage for the postemergence treatment. Treated plants and untreated controls were maintained in a greenhouse for approximately 10 days, after which time all treated plants were compared to untreated controls and visually evaluated for injury. Plant response ratings, summarized in Table A, are based on a 0 to 100 scale where 0 is no effect and 100 is complete control. A dash (-) response means no test result.

[2] = test system: galium (catchweed bedstraw, Galium aparine); assay: Test A postemergence; details: Galium, post-emergence, 240 h, 0 to 100 scale, read-out: Plant response rating, Galium
Description: as §1, §2

[3] = test system: barnyardgrass (Echinochloa crus-galli); assay: Test A postemergence; details: Echinochloa crus-galli, post-emergence, 240 h, 0 to 100 scale, read-out: Plant response rating, Barnyardgrass
Description: as §1, §2

[4] = test system: Italian ryegrass (Lolium multiflorum); assay: Test A postemergence; details: Lolium multiflorum, post-emergence, 240 h, 0 to 100 scale, read-out: Plant response rating, Ryegrass, Italian
Description: as §1, §2

[5] = test system: pigweed (Amaranthus retroflexus); assay: Test A postemergence; details: Amaranthus retroflexus, post-emergence, 240 h, 0 to 100 scale, read-out: Plant response rating, Pigweed
Description: as §1, §2

[6] = test system: ragweed (common ragweed, Ambrosia elatior); assay: Test A postemergence; details: Ambrosia artemisiifolia, post-emergence, 240 h, 0 to 100 scale, read-out: Plant response rating, Ragweed
Description: as §1, §2

[7] = test system: blackgrass (Alopecurus myosuroides); assay: Test A postemergence; details: Alopecurus myosuroides, post-emergence, 240 h, 0 to 100 scale, read-out: Plant response rating, Blackgrass
Description: as §1, §2

[8] = test system: wheat (Triticum aestivum); assay: Test A postemergence; details: Triticum aestivum, post-emergence, 240 h, 0 to 100 scale, read-out: Plant response rating, Wheat
Description: as §1, §2

corn (Zea mays) = assay: Test A postemergence; details: Zea mays, post-emergence, 240 h, 0 to 100 scale
Description: as §1, §2

kochia (Kochia scoparia) [9] = assay: Test A postemergence; details: Bassia scoparia, post-emergence, 240 h, 0 to 100 scale, read-out: Plant response rating, Kochia
Description: as §1, §2

[10] = test system: giant foxtail (Setaria faberii); assay: Test A preemergence; details: Setaria faberi, pre-emergence, 240 h
Description: as §1, §2

[11] = test system: barnyardgrass (Echinochloa crus-galli); assay: Test A preemergence; details: Echinochloa crus-galli, pre-emergence, 240 h
Description: as §1, §2

[12] = test system: Italian ryegrass (Lolium multiflorum); assay: Test A preemergence; details: Lolium multiflorum, pre-emergence, 240 h
Description: as §1, §2

[13] = test system: pigweed (Amaranthus retroflexus); assay: Test A preemergence; details: Amaranthus retroflexus, pre-emergence, 240 h
Description: as §1, §2

[14] = test system: ragweed (common ragweed, Ambrosia elatior); assay: Test A preemergence; details: Ambrosia artemisiifolia, pre-emergence, 240 h
Description: as §1, §2

kochia (Kochia scoparia) [15] = assay: Test A preemergence; details: Bassia scoparia, pre-emergence, 240 h
Description: as §1, §2

N#Cc1cccc(Oc2ncc(Br)cn2)c1Oc1ccc(Br)cn1 [Compound 12]
30%: pest or weed control at 125 g/ha ([11]; 125 g ai/ha, 0 to 100 scale, read-out: Plant response rating, Barnyardgrass)
10%: pest or weed control at 31 g/ha ([2]; 31 g ai/ha) | pest or weed control at 31 g/ha ([5]; 31 g ai/ha)
0%: pest or weed control at 31 g/ha ([1]; 31 g ai/ha) | pest or weed control at 31 g/ha ([3]; 31 g ai/ha) | pest or weed control at 31 g/ha ([4]; 31 g ai/ha) | pest or weed control at 125 g/ha ([4]; 125 g ai/ha) | pest or weed control at 31 g/ha ([6]; 31 g ai/ha) | pest or weed control at 125 g/ha ([6]; 125 g ai/ha) | pest or weed control at 31 g/ha ([7]; 31 g ai/ha) | plant injury at 31 g/ha ([8]; 31 g ai/ha) | Corn plant response rating (crop injury, 0 = no effect, 100 = complete kill) at 31 g/ha (corn (Zea mays); 31 g ai/ha) | pest or weed control at 31 g/ha (kochia (Kochia scoparia) [9]; 31 g ai/ha) | pest or weed control at 31 g/ha ([10]; 31 g ai/ha, 0 to 100 scale (0 no effect, 100 complete control), read-out: Foxtail, Giant plant response rating) | pest or weed control at 31 g/ha ([11]; 31 g ai/ha, 0 to 100 scale (0 no effect, 100 complete control), read-out: Barnyardgrass plant response rating) | pest or weed control at 31 g/ha ([12]; 31 g ai/ha, 0 to 100 scale (0 no effect, 100 complete control), read-out: Ryegrass, Italian plant response rating) | pest or weed control at 125 g/ha ([12]; 125 g ai/ha, 0 to 100 scale, read-out: Plant response rating, Ryegrass, Italian) | pest or weed control at 31 g/ha ([14]; 31 g ai/ha, 0 to 100 scale (0 no effect, 100 complete control), read-out: Ragweed plant response rating) | pest or weed control at 125 g/ha ([14]; 125 g ai/ha, 0 to 100 scale, read-out: Plant response rating, Ragweed) | pest or weed control at 31 g/ha (kochia (Kochia scoparia) [15]; 31 g ai/ha, 0 to 100 scale (0 no effect, 100 complete control), read-out: Kochia plant response rating)
50%: pest or weed control at 125 g/ha ([2]; 125 g ai/ha) | pest or weed control at 125 g/ha ([7]; 125 g ai/ha)
100%: pest or weed control at 125 g/ha ([5]; 125 g ai/ha) | pest or weed control at 125 g/ha ([13]; 125 g ai/ha, 0 to 100 scale, read-out: Plant response rating, Pigweed)
60%: pest or weed control at 31 g/ha ([13]; 31 g ai/ha, 0 to 100 scale (0 no effect, 100 complete control), read-out: Pigweed plant response rating)
70%: pest or weed control at 125 g/ha ([10]; 125 g ai/ha, 0 to 100 scale, read-out: Plant response rating, Foxtail, Giant)
40%: pest or weed control at 125 g/ha ([1]; 125 g ai/ha)
20%: pest or weed control at 125 g/ha ([3]; 125 g ai/ha) | plant injury at 125 g/ha ([8]; 125 g ai/ha) | Corn plant response rating (crop injury, 0 = no effect, 100 = complete kill) at 125 g/ha (corn (Zea mays); 125 g ai/ha) | pest or weed control at 125 g/ha (kochia (Kochia scoparia) [9]; 125 g ai/ha) | pest or weed control at 125 g/ha (kochia (Kochia scoparia) [15]; 125 g ai/ha, 0 to 100 scale, read-out: Plant response rating, Kochia)
